These results are taken from article PMC8994207 (Journal of medicinal chemistry, 2021).

“Also recorded” adds a separate entry of the source. Read-outs that look alike come from different tables or passages of the source.

One series deals with T1, human OX1R (Homo sapiens, UniProt O43613).
T1 sequence (O43613 1-425): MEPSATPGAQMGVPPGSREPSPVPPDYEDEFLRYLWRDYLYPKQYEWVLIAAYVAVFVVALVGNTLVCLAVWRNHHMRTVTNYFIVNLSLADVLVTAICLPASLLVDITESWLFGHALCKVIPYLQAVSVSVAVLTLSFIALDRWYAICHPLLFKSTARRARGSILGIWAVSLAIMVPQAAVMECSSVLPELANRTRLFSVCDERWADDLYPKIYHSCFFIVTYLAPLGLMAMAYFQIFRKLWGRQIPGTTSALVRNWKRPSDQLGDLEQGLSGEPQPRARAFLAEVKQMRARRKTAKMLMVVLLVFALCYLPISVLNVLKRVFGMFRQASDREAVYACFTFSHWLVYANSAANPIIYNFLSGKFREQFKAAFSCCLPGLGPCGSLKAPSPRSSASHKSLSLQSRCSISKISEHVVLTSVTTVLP
The series is described as follows: OX1R calcium mobilization assay. Particulars: for agonist activity at OX1R (in words): calcium mobilization. (A change in cytosolic calcium serves as a functional read-out for many receptors and channels.)

A further series concerns 12-month old mice. The experiment in a line: Sleep modulation study, continuous EEG/EMG recordings. The series is classed as in vivo.
For the next series, the target named is T2, human OX2R (Homo sapiens, UniProt O43614).
T2 sequence (O43614 1-444): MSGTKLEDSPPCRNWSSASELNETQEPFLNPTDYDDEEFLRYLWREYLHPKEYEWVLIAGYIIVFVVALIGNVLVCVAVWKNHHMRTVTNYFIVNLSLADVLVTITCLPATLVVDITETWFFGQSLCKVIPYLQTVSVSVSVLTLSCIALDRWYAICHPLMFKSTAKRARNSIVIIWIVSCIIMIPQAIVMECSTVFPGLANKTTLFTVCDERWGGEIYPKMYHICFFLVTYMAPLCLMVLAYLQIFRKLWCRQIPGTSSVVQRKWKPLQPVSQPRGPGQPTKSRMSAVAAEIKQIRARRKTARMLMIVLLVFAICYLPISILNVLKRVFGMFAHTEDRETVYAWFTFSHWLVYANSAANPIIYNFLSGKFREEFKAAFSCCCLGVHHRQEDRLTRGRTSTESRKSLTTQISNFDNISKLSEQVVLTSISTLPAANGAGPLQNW
The experiment in a line: OX2R calcium mobilization assay. To be noted: for agonist activity at OX2R (in words): calcium mobilization.

For the next series, the system named is rats. To be noted: EEG changes, locomotor activity, startle response latency; cited from earlier work.
For the next series, the system named is mice. Particulars: cited from earlier work.
Another series relates to OX1R. Particulars: read-out: EC50 at OX1R; weak agonist of both OX receptors; cited from earlier work.
For a further series, the system named is OX2R. To be noted: read-out: EC50 at OX2R; weak agonist of both OX receptors; cited from earlier work.
The conditions of series [1]: cited from earlier work.
Where [2] appears, read: 40 mg/kg i.p., 4 h post-injection, vs saline.
Setting [3] is: 40 mg/kg i.p., lights-on phase, 12-month old mice, 0-4 h post-injection, vs vehicle.
Setting [4] is: i.p. injection, 12-month old mice.
[5] abbreviates: i.c.v. 30, 100, 300 nmol, light phase, up to 3 h post injection.
Where [6] appears, read: i.p. 40 and 60 mg/kg, 6 h into the light phase, up to 3 h, mice.

One may read the Emax as the maximal effect, on the per cent scale that the assay sets. Broadly, the EC50 is the concentration that produces a half-maximal response.

Take `COc1ccc(-c2cccc(C(=O)N(C)Cc3ccccc3)c2)cc1S(=O)(=O)Nc1cccc(NCCNC(=O)c2cccc(C)c2)c1` [compound 36, N-Benzyl-4’-methoxy-N-methyl-3’-(N-(3-((2-(3-methylbenzamido)ethyl)amino)phenyl)sulfa-moyl)-[1,1’-biphenyl]-3-carboxamide]: at human OX1R, the “agonist activity at OX1R (in words)” value is reported as “no activity”.
The same measure, in the same setting: to `CCCNC(=O)c1cccc(-c2ccc(OC)c(S(=O)(=O)Nc3cccc(NCCNC(=O)c4ccccc4N(C)C)c3)c2)c1` [compound 9, 3’-(N-(3-((2-(2-(dimethylamino)benzamido)ethyl)amino)phenyl)sulfamoyl)-4’-methoxy-N-p-ropyl-[1,1’-biphenyl]-3-carboxamide] belongs “no activity”; to `COc1ccc(-c2cccc(C(=O)N(C)Cc3ccncc3)c2)cc1C(=O)Nc1cccc(NCCNC(=O)c2cccc(C)c2)c1` [compound 44, 4-Methoxy-N^3’-methyl-N^3-(3-((2-(3-methylbenzamido)ethyl)amino)phenyl)-N^3’-(pyridin-4-ylmethyl)-[1,1’-biphenyl]-3,3’-dicarboxamide], “total loss of activity”.
In the case of `COc1ccc(-c2cccc(C(=O)N(C)Cc3ccncc3)c2)cc1S(=O)(=O)Nc1cccc(NCCNC(=O)c2cccc(C)c2)c1` [compound 40, 4’-Methoxy-N-methyl-3’-(N-(3-((2-(3-methylbenzamido)ethyl)amino)phenyl)sulfamoyl)-N-(pyridin-4-ylmethyl)-[1,1’-biphenyl]-3-carboxamide], the “agonist activity at OX1R (in words)” value on human OX1R is “full agonist”. Also, the Emax on human OX1R (read-out: Emax at OX1R) was approximately 100%. In the series with 12-month old mice (setting [2]), the “duration of NREM sleep episodes” value was “increased”, the “duration of REM sleep episodes” value is on record as “did not affect; also recorded: without effecting”, the “duration of wake episodes” value is “increased” and the “number of NREM sleep episodes” value was “Reduced”. For the same molecule, in the series with 12-month old mice (setting [2]), the “number of REM sleep episodes” value was “fewer episodes; also recorded: reduced”, the “number of state transitions” value is reported as “reduced” and the “number of wake episodes” value is given as “reduced”. Further, in the series with 12-month old mice (setting [3]), the “time spent in NREM sleep” value was “reduced; also recorded: decreased” and the “time spent in REM sleep” value is “reduced; also recorded: decreased”. Moreover, in the series with 12-month old mice (40 mg/kg i.p., quiet lights-on phase, 12-month old mice, 0-4 h post-injection, vs vehicle), the “time spent in wakefulness” value was “significantly increased”. Also, in the series with 12-month old mice (setting [4]), the sleep/wake consolidation entry is listed as “increased; also recorded: improved” and the time asleep result was “decreased”. For the same molecule, the “agonist activity at OX2R (in words)” value at human OX2R is given as “full agonist”. Also, the Emax at human OX2R (read-out: Emax at OX2R) is approximately 100%.
With `COc1ccc(-c2cccc(C(=O)N(C)C)c2)cc1S(=O)(=O)Nc1cccc(N2CCN(C(=O)c3ccccc3N(C)C)CC2)c1` [compound 22, 3’-(N-(3-(4-(2-(dimethylamino)benzoyl)piperazin-1-yl)phenyl)sulfamoyl)-4’-methoxy-N,N-dimethyl-[1,1’-biphenyl]-3-carboxamide], on human OX1R, the “agonist activity at OX1R (in words)” value was “all activities were lost”. In addition, the “agonist activity at OX2R (in words)” value on human OX2R was “all activities were lost”.
Consider `COc1ccc(CCC(=O)N(C)C)cc1S(=O)(=O)Nc1cccc(NCCNC(=O)c2cccc(C)c2)c1` [compound 32, N-(2-((3-((5-(3-(dimethylamino)-3-oxopropyl)-2-methoxyphenyl)sulfonamido)phenyl)amin-o)ethyl)-3-methylbenzamide], for which, at human OX1R, the “agonist activity at OX1R (in words)” value is “inactive”. The “agonist activity at OX2R (in words)” value at human OX2R was “inactive”.
`COc1ccc(-c2cccc(C(=O)N(C)C)c2)cc1S(=O)(=O)Nc1cccc(N2CCN(C(=O)c3cccc(C)c3)CC2)c1` [compound 23, 4’-Methoxy-N,N-dimethyl-3’-(N-(3-(4-(3-methylbenzoyl)piperazin-1-yl)phenyl)sulfamoyl)-[1,1’-biphenyl]-3-carboxamide]: the “agonist activity at OX1R (in words)” value on human OX1R was “all activities were lost”. Besides, the “agonist activity at OX2R (in words)” value at human OX2R is given as “all activities were lost”.
With `COc1ccc(-c2cccc(CN(C)C)c2)cc1S(=O)(=O)Nc1cccc(NCCNC(=O)c2ccccc2N(C)C)c1` [compound 10, 2-(Dimethylamino)-N-(2-((3-((3’-((dimethylamino)methyl)-4-methoxy-[1,1’-biphenyl])-3-sulfonamido)phenyl)amino)ethyl)benzamide], at human OX1R, the “agonist activity at OX1R (in words)” value was “no activity”.
With `COc1ccc(-c2cccc(C(=O)N(C)C)c2)cc1S(=O)(=O)Nc1cccc(NCCNC(=O)c2ccccc2N(C)C)c1` [compound 2, 3’-(N-(3-((2-(2-(dimethylamino)benzamido)ethyl)amino)phenyl)sulfamoyl)-4’-methoxy-N,-N-dimethyl-[1,1’-biphenyl]-3-carboxamide], the morphine-induced sedative effects entry in the series on rats is listed as “attenuated”. Besides, in the series on mice (setting [5]), the “percent time in NREM sleep” value is “decreased” and the time in wakefulness result is “increased”. In the series with mice (i.p. 20 mg/kg), the sleep/wake parameters entry is recorded as “did not have any effect”. Further, the “percent time in NREM sleep” value in the series with mice (i.p. 40 mg/kg, mice) was “reduced”. In the series on mice (setting [6]), the “percent time in REM sleep” value is “decreased” and the “percent time in wakefulness” value is given as “increased”. In the series on mice (i.p. 40 or 60 mg/kg), the wake time entry is recorded as “increased”. Also, in the series on mice (i.p. 40 or 60 mg/kg, for 3 hours), the “direct transitions from wakefulness to REM sleep” value is “decreased”. In addition, the cataplexy-like episodes result in the series with mice (orexin knock-out and orexin neuron-ablated mice) is reported as “suppressed”. Besides, the wakefulness entry with mice (wild-type mice, i.c.v. 30–300 nmol and/or i.p. 40 mg/kg, hydrochloride salt) is recorded as “promoted wakefulness”.
For `COc1ccc(-c2cccc(C(=O)NCCN(C)C)c2)cc1S(=O)(=O)Nc1cccc(NCCNC(=O)c2cccc(C)c2)c1` [compound 34, N-(2-(dimethylamino)ethyl)-4’-methoxy-3’-(N-(3-((2-(3-methylbenzamido)ethyl)amino)phenyl)sulfamoyl)-[1,1’-biphenyl]-3-carboxamide], the “agonist activity at OX1R (in words)” value at human OX1R was “complete loss of potency”.
Take `Cc1ccc(Cn2c(=N)n(CC(O)c3ccc(Cl)c(Cl)c3)c3ccccc32)cc1` (stereo not shown) [compound 1]: the EC50 in the series with OX1R and in the series on OX2R was more than 3.2 µM in each case. In addition, the cytotoxicity result in series [1] is reported as “OX receptor independent cytotoxicity”.
Turning to `COc1ccc(-c2cccc(C(=O)N(C)C)c2)cc1C(=O)Nc1cccc(NCCNC(=O)c2cccc(C)c2)c1` [compound 43, 4-Methoxy-N^3’,N^3’-dimethyl-N^3-(3-((2-(3-methylbenzamido)ethyl)amino)phenyl)-[1,1’-biph-enyl]-3,3’-dicarboxamide], the “agonist activity at OX1R (in words)” value on human OX1R is given as “total loss of activity”.
Consider `COc1ccc(/C=C/C(=O)N(C)C)cc1S(=O)(=O)Nc1cccc(NCCNC(=O)c2cccc(C)c2)c1` [compound 31, (E)-N-(2-((3-((5-(3-(dimethylamino)-3-oxoprop-1-en-1-yl)-2-methoxyphenyl)sulfonamido)-phenyl)amino)ethyl)-3-methylbenzamide], for which the “agonist activity at OX1R (in words)” value at human OX1R was “inactive”. On human OX2R, the “agonist activity at OX2R (in words)” value was “inactive”.
With `COc1ccc(-c2cccc(C(=O)NCc3ccccn3)c2)cc1S(=O)(=O)Nc1cccc(NCCNC(=O)c2cccc(C)c2)c1` [compound 38, 4’-Methoxy-3’-(N-(3-((2-(3-methylbenzamido)ethyl)amino)phenyl)sulfamoyl)-N-(pyridin-2-ylmethyl)-[1,1’-biphenyl]-3-carboxamide], on human OX1R, the “agonist activity at OX1R (in words)” value was “complete loss of the OX1R potency”.
In the case of `COc1ccc(-c2cccc(C(=O)N(C)C)n2)cc1S(=O)(=O)Nc1cccc(NCCNC(=O)c2cccc(C)c2)c1` [compound 27, 6-(4-methoxy-3-(N-(3-((2-(3-methylbenzamido)ethyl)amino)phenyl)sulfamoyl)phenyl)-N,N-dimethylpicolinamide], the “agonist activity at OX1R (in words)” value on human OX1R is listed as “full agonist”.
